The text below walks through data of ChEMBL document CHEMBL1155960, “Design, synthesis and preliminary biological evaluation of acridine compounds as potential agents for a combined targeted chemo-radionuclide therapy approach to melanoma” (Bioorg Med Chem, 2008).

As usually defined, the logD is the decadic logarithm of the distribution of all forms, ionised or not, between an organic phase and buffer at a given pH.

The conditions of data set [1]: mouse, in vivo, iv, 72 h.
Description: Biodistribution in melanoma of C57BL/6 mouse bearing mouse B16-F0 cells at 0.74 to 0.92 MBq, iv after 72 hrs
Data set [2] deals with Brain. To be noted: mouse, in vivo, iv, 1 h.
Description: Biodistribution in brain of C57BL/6 mouse bearing mouse B16-F0 cells at 0.74 to 0.92 MBq, iv after 1 hr
Data set [3] deals with Brain. To be noted: mouse, in vivo, iv, 3 h.
Description: Biodistribution in brain of C57BL/6 mouse bearing mouse B16-F0 cells at 0.74 to 0.92 MBq, iv after 3 hrs
For data set [4] the following is noted: mouse, in vivo, iv, 1 h.
Description: Biodistribution in intestinal content of C57BL/6 mouse bearing mouse B16-F0 cells at 0.74 to 0.92 MBq, iv after 1 hr
The conditions of data set [5]: mouse, in vivo, iv, 3 h.
Description: Biodistribution in intestinal content of C57BL/6 mouse bearing mouse B16-F0 cells at 0.74 to 0.92 MBq, iv after 3 hrs
The conditions of data set [6]: mouse, in vivo, iv, 6 h.
Description: Biodistribution in intestinal content of C57BL/6 mouse bearing mouse B16-F0 cells at 0.74 to 0.92 MBq, iv after 6 hrs
Data set [7] concerns Liver. The settings on record: mouse, in vivo, iv, 3 h.
Description: Biodistribution in liver of C57BL/6 mouse bearing mouse B16-F0 cells at 0.74 to 0.92 MBq, iv after 3 hrs
For data set [8], the system named is Liver. To be noted: mouse, in vivo, iv, 24 h.
Description: Biodistribution in liver of C57BL/6 mouse bearing mouse B16-F0 cells at 0.74 to 0.92 MBq, iv after 24 hrs
Data set [9] has as its system Muscle tissue. The settings on record: mouse, in vivo, iv, 1 h.
Description: Biodistribution in muscle of C57BL/6 mouse bearing mouse B16-F0 cells at 0.74 to 0.92 MBq, iv after 1 hr
Data set [10] relates to Muscle tissue. The settings on record: mouse, in vivo, iv, 3 h.
Description: Biodistribution in muscle of C57BL/6 mouse bearing mouse B16-F0 cells at 0.74 to 0.92 MBq, iv after 3 hrs
Data set [11] deals with Muscle tissue. To be noted: mouse, in vivo, iv, 6 h.
Description: Biodistribution in muscle of C57BL/6 mouse bearing mouse B16-F0 cells at 0.74 to 0.92 MBq, iv after 6 hrs
Data set [12] concerns Lung. To be noted: mouse, in vivo, iv, 1 h.
Description: Biodistribution in lung of C57BL/6 mouse bearing mouse B16-F0 cells at 0.74 to 0.92 MBq, iv after 1 hr
The subject of data set [13] is Lung. The settings on record: mouse, in vivo, iv, 3 h.
Description: Biodistribution in lung of C57BL/6 mouse bearing mouse B16-F0 cells at 0.74 to 0.92 MBq, iv after 3 hrs
Data set [14] concerns Lung. To be noted: mouse, in vivo, iv, 6 h.
Description: Biodistribution in lung of C57BL/6 mouse bearing mouse B16-F0 cells at 0.74 to 0.92 MBq, iv after 6 hrs
Data set [15] deals with Spleen. To be noted: mouse, in vivo, iv, 1 h.
Description: Biodistribution in spleen of C57BL/6 mouse bearing mouse B16-F0 cells at 0.74 to 0.92 MBq, iv after 1 hr
Data set [16] deals with Spleen. To be noted: mouse, in vivo, iv, 3 h.
Description: Biodistribution in spleen of C57BL/6 mouse bearing mouse B16-F0 cells at 0.74 to 0.92 MBq, iv after 3 hrs
The subject of data set [17] is Kidney. To be noted: mouse, in vivo, iv, 1 h.
Description: Biodistribution in kidney of C57BL/6 mouse bearing mouse B16-F0 cells at 0.74 to 0.92 MBq, iv after 1 hr
Data set [18] relates to Kidney. The settings on record: mouse, in vivo, iv, 3 h.
Description: Biodistribution in kidney of C57BL/6 mouse bearing mouse B16-F0 cells at 0.74 to 0.92 MBq, iv after 3 hrs
In data set [19] the test system is Kidney. To be noted: mouse, in vivo, iv, 6 h.
Description: Biodistribution in kidney of C57BL/6 mouse bearing mouse B16-F0 cells at 0.74 to 0.92 MBq, iv after 6 hrs
For data set [20], the system named is Blood. The settings on record: mouse, in vivo, iv, 1 h.
Description: Biodistribution in blood of C57BL/6 mouse bearing mouse B16-F0 cells at 0.74 to 0.92 MBq, iv after 1 hr
Data set [21] deals with Blood. To be noted: mouse, in vivo, iv, 3 h.
Description: Biodistribution in blood of C57BL/6 mouse bearing mouse B16-F0 cells at 0.74 to 0.92 MBq, iv after 3 hrs
The conditions of data set [22]: mouse, in vivo, iv, 1 h. This is another data set of the same source.
Description: Biodistribution in uvea of C57BL/6 mouse bearing mouse B16-F0 cells at 0.74 to 0.92 MBq, iv after 1 hr
The conditions of data set [23]: mouse, in vivo, iv, 3 h. The source holds these as a separate data set.
Description: Biodistribution in uvea of C57BL/6 mouse bearing mouse B16-F0 cells at 0.74 to 0.92 MBq, iv after 3 hrs
The conditions of data set [24]: mouse, in vivo, iv, 6 h. This is another data set of the same source.
Description: Biodistribution in uvea of C57BL/6 mouse bearing mouse B16-F0 cells at 0.74 to 0.92 MBq, iv after 6 hrs
The conditions of data set [25]: mouse, in vivo, iv, 24 h.
Description: Biodistribution in uvea of C57BL/6 mouse bearing mouse B16-F0 cells at 0.74 to 0.92 MBq, iv after 24 hrs
For data set [26] the following is noted: mouse, in vivo, iv, 72 h. The source holds these as a separate data set.
Description: Biodistribution in uvea of C57BL/6 mouse bearing mouse B16-F0 cells at 0.74 to 0.92 MBq, iv after 72 hrs
Another data set can be described thus: physchem. The settings on record: phosphate buffer solution, pH 7.4.
The conditions of data set [27]: mouse, in vivo, iv, 72 h. The source holds these as a separate data set.
Description: Drug excretion in mouse B16-F0 cells bearing C57BL/6 mouse urine at 0.74 to 0.92 MBq, iv after 72 hrs
For data set [28] the following is noted: mouse, in vivo, iv, 72 h. The source holds these as a separate data set.
Description: Drug excretion in mouse B16-F0 cells bearing C57BL/6 mouse feces at 0.74 to 0.92 MBq, iv after 72 hrs
For data set [29] the following is noted: mouse, in vivo, iv, 1 h. This is another data set of the same source.
Description: Biodistribution in stomach content of C57BL/6 mouse bearing mouse B16-F0 cells at 0.74 to 0.92 MBq, iv after 1 hr
The conditions of data set [30]: mouse, in vivo, iv, 3 h. This is another data set of the same source.
Description: Biodistribution in stomach content of C57BL/6 mouse bearing mouse B16-F0 cells at 0.74 to 0.92 MBq, iv after 3 hrs
For data set [31] the following is noted: mouse, in vivo, iv, 6 h. The source holds these as a separate data set.
Description: Biodistribution in stomach content of C57BL/6 mouse bearing mouse B16-F0 cells at 0.74 to 0.92 MBq, iv after 6 hrs
For data set [32], the system named is Liver. The settings on record: mouse, in vivo, iv, 1 h.
Description: Biodistribution in liver of C57BL/6 mouse bearing mouse B16-F0 cells at 0.74 to 0.92 MBq, iv after 1 hr
For data set [33], the system named is Liver. To be noted: mouse, in vivo, iv, 6 h.
Description: Biodistribution in liver of C57BL/6 mouse bearing mouse B16-F0 cells at 0.74 to 0.92 MBq, iv after 6 hrs

Description for physchem: Partition coefficient, log P in phosphate buffer solution at pH 7.4

With `CCN(CC)CCNC(=O)c1cccc2c(=O)c3cc(I)ccc3[nH]c12.Cl`, the Drug uptake is reported as 17.5 % ID/g in data set [1]; 1.6 % ID/g in the data set on Brain [2]; 1.2 % ID/g with Brain [3]; 22.7 % ID/g in data set [4]; 27.81 % ID/g in data set [5]; 32.9 % ID/g in [6]. Moreover, the Drug uptake is listed as 9.3 % ID/g in the data set on Liver [7]; 1.2 % ID/g in the data set with Liver [8]; 1.9 % ID/g in the data set on Muscle tissue [9]; 1.4 % ID/g in the data set with Muscle tissue [10]; 0.9 % ID/g in the data set with Muscle tissue [11]; 23.9 % ID/g in the data set with Lung [12]. Moreover, the Drug uptake with Lung [13] is 14 % ID/g; in the data set on Lung [14] it was 10 % ID/g; in the data set on Spleen [15] it was 13.9 % ID/g; with Spleen [16], 9.9 % ID/g; in the data set on Kidney [17], 17.6 % ID/g; with Kidney [18], 13 % ID/g. For the same molecule, the Drug uptake was 8.9 % ID/g in the data set with Kidney [19]; 2.08 % ID/g in the data set with Blood [20]; 1.4 % ID/g in the data set with Blood [21]; 15.2 % ID/g in [22]; 16.9 % ID/g in [23]; 19.5 % ID/g in [24]. For the same molecule, the results for the Drug uptake in [25] and in data set [26] were 27.5 % ID/g and 26.4 % ID/g, respectively. Further, the logD in the data set “physchem” was 0.27.
Turning to `CCN(CC)CCNC(=O)c1cccc2c(=O)c3cc([125I])ccc3[nH]c12.Cl`, the Drug uptake in data set [27] is 10.4 %ID; in [28], 38.4 %ID.
As to `CCN(CC)CCNC(=O)c1ccc(I)cc1.Cl`, the Drug uptake in [1] turned out to be 0.88 % ID/g; in the data set on Brain [2], 1.5 % ID/g; in the data set on Brain [3] it was 0.8 % ID/g; in data set [4], 7.4 % ID/g; in [5] it was 3.7 % ID/g; in data set [6] it was 3.3 % ID/g. Also, the Drug uptake in [29] is recorded as 10.1 % ID/g; in data set [30], 4.3 % ID/g; in data set [31], 4.5 % ID/g; with Liver [32], 5.9 % ID/g; in the data set with Liver [7] it was 3.3 % ID/g; in the data set on Liver [33] it was 2.6 % ID/g. For the same molecule, the Drug uptake amounted to 0.4 % ID/g with Liver [8]; 1.3 % ID/g with Muscle tissue [9]; 0.4 % ID/g with Muscle tissue [10]; 0.1 % ID/g in the data set on Muscle tissue [11]; 5.5 % ID/g in the data set with Lung [12]; 2 % ID/g in the data set on Lung [13]. Besides, the Drug uptake with Lung [14] is on record as 1 % ID/g; in the data set on Spleen [15], 4 % ID/g; with Spleen [16], 0.8 % ID/g; in the data set with Kidney [17], 7.3 % ID/g; with Kidney [18], 3.1 % ID/g; with Kidney [19], 1.6 % ID/g. In addition, the Drug uptake in the data set with Blood [20] was 1.1 % ID/g; in the data set on Blood [21] it was 0.2 % ID/g; in data set [22] it was 13.1 % ID/g; in [23], 12 % ID/g; in [24], 13 % ID/g; in [25] it was 6.1 % ID/g. For the same molecule, the Drug uptake in data set [26] stood at 3.8 % ID/g; in [27] it was 83.1 %ID; in data set [28], 4.8 %ID. The molecule further came in with a logD in the data set “physchem” of 1.34.
